Four molecules from patent EP0799834A1, “Modified nucleotides” (priority 1996, dated 1997) can be followed below.

Common to all, as to assay type: biochemical
For one assay, the target named is T7 sequenase version 2 (Escherichia phage T7, UniProt P00581, DEL118-145). In words: Chain elongation: addition of modified nucleotide to primer by polymerase (gel autoradiography). On the set-up: key: +: slow addition of modified nucleotide to the primer; ++: good addition of modified nucleotide to the primer; -: no addition of modified nucleotide to the primer. The following applies: T7 sequenase version 2 0.13 units; modified nucleotide 100 µM; dATP, dGTP, dCTP 2.5 µM each; 37°C. Here is the method:
(§1) The triposphates of the modified nucleotides are synthesized as described by Kovács & Ötvös (Tetrahedron Lett. (1988), 29, […]) • 5' P^32-[…]-OH SEQ ID NO:1 • 3' HO-[…]-OH SEQ ID NP:2
(§2) A solution of template (3.0 pmol of SEQ ID NO:2) and radioactive primer (0.8 pmol of SEQ ID NO:1) in 72 µl buffer (20 mM Tris-HCl, pH 7.5; 6 mM MgCl2; 40 mM KCl; 0.5 mM DTT) are heated to 80°C and allowed to cool down to 25°C within one hour. To this solution polymerase (see table 1) is added. Aliquots of thereof are mixed with 4 µl of a solution comprising dATP, dGTP, dCTP and the modified nucleotide (see table 1), resulting in a final concentration of dATP, dGTP and dCTP as provided in table 1 and a final concentration of the modified nucleotide of 100 µM. The solutions are incubated at 37°C and the elongation reaction is stopped by addition of 5 µl of a solution of formamide comprising 5 mM EDTA (pH 8.0).
(§3) 3-5 µl of these solutions are subjected to a polyacrylamide gel (19 % acrylamide, 7 M urea). After electrophoresis the gel is transferred to a filter paper, dried and analyzed using autoradiography (see table 2).

The target of the next assay is T1, Klenow (Escherichia coli, UniProt P00582).
T1 construct: Klenow
The description is as above. On the set-up: key: +: slow addition of modified nucleotide to the primer; ++: good addition of modified nucleotide to the primer; -: no addition of modified nucleotide to the primer. To be noted: Klenow 1.5 units; modified nucleotide 100 µM; dATP, dGTP, dCTP 0.5 µM each; 37°C. The method, then:
as §1, §2, §3

Another assay has as its system AMV RT. In words: Chain elongation: addition of modified nucleotide to primer by reverse transcriptase (gel autoradiography). On the set-up: key: +: slow addition of modified nucleotide to the primer; ++: good addition of modified nucleotide to the primer; -: no addition of modified nucleotide to the primer. The following applies: AMV RT 2.0 units; modified nucleotide 100 µM; dATP, dGTP, dCTP 0.5 µM each; 37°C. Here is the method: as §1, §2, §3

The target of the next assay is T2, M-MuLV RT (Moloney murine leukemia virus, UniProt P03355).
T2 construct: M-MuLV RT
The assay is described as above. Also noted: key: +: slow addition of modified nucleotide to the primer; ++: good addition of modified nucleotide to the primer; -: no addition of modified nucleotide to the primer. The following applies: M-MuLV RT 9 units; modified nucleotide 100 µM; dATP, dGTP, dCTP 15.0 µM each; 37°C. Here is the method: as §1, §2, §3

In a further assay the target is T3, HIV-1RT (Human immunodeficiency virus type 1 group M subtype B, UniProt P04585).
T3 construct: HIV-1RT
Described as above. Also noted: key to addition of modified nucleotide to the primer: +: slow addition of modified nucleotide to the primer; ++: good addition of modified nucleotide to the primer; -: no addition of modified nucleotide to the primer. To be noted: HIV-1RT 0.13 units; modified nucleotide 100 µM; dATP, dGTP, dCTP 1.0 µM each; 37°C. Here is the method: as §1, §2, §3

T1 sequence (P00582 324-928): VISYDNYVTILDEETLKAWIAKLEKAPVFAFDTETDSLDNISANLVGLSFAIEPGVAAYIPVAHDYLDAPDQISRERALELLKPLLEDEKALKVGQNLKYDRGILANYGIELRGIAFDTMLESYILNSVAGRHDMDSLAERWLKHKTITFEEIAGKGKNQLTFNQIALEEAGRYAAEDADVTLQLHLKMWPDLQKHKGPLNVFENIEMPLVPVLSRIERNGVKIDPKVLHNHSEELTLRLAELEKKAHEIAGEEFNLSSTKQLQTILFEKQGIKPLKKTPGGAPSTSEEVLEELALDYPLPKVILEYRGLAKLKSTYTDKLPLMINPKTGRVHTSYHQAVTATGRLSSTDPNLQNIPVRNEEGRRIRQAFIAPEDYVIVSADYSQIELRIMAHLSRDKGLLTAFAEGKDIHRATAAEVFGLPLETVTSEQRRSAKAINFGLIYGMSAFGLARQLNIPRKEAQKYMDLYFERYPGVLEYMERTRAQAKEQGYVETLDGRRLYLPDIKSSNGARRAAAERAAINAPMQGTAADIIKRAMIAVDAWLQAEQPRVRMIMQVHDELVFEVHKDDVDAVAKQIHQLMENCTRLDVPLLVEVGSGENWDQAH
Sequence of T7 sequenase version 2 (P00581 other isoform, or with tags, fused parts or gaps DEL118-145): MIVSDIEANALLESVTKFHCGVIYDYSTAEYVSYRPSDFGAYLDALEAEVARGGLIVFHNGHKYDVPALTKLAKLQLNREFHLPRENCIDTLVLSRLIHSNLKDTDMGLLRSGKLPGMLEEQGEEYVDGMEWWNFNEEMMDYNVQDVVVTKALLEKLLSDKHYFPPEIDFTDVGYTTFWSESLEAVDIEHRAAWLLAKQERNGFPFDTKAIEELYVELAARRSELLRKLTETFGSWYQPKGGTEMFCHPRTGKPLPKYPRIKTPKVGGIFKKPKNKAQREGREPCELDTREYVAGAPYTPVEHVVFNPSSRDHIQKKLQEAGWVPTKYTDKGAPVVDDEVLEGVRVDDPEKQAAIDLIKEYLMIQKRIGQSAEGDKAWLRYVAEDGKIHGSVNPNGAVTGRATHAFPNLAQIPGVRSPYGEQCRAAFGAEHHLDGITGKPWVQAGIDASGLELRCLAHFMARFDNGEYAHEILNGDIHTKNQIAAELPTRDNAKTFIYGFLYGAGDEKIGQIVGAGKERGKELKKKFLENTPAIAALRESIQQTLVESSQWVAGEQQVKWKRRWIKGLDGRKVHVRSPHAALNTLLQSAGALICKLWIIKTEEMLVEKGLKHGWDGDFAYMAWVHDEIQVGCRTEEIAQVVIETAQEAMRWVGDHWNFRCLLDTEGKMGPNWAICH
Sequence of T7 sequenase version 2 (P0AA25 2-109, stated change not applied, further chain): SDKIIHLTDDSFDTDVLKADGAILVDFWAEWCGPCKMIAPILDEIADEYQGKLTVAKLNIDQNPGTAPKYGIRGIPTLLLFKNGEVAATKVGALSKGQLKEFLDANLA

As for `Cc1cn([C@H]2C[C@H](O)[C@](COP(=O)(O)OP(=O)(O)OP(=O)(O)O)(C(=O)C(C)(C)C)O2)c(=O)[nH]c1=O` [R^1=t-butyl], the “addition of modified nucleotide to the primer” value (“addition … to the primer” below) at T7 sequenase version 2, at Klenow, in the assay on AMV RT, at M-MuLV RT and at HIV-1RT was “-” throughout.
Consider `Cc1cn([C@H]2C[C@H](O)[C@](COP(=O)(O)OP(=O)(O)OP(=O)(O)O)(C(=O)c3ccccc3)O2)c(=O)[nH]c1=O` [R^1=C6H5], for which the “addition … to the primer” value at T7 sequenase version 2 is listed as “-”; at Klenow, “-”; with AMV RT it was “++”; at M-MuLV RT it was “-”; on HIV-1RT it was “++”.
Turning to `CC(=O)[C@]1(COP(=O)(O)OP(=O)(O)OP(=O)(O)O)O[C@@H](n2cc(C)c(=O)[nH]c2=O)C[C@@H]1O` [R^1=CH3], the “addition … to the primer” value on T7 sequenase version 2, at Klenow, in the assay on AMV RT, at M-MuLV RT and at HIV-1RT was “++” throughout. For the same molecule, the “elongation after addition of modified nucleotide” value at HIV-1RT was “elongation”.
On to `CCC(=O)[C@]1(COP(=O)(O)OP(=O)(O)OP(=O)(O)O)O[C@@H](n2cc(C)c(=O)[nH]c2=O)C[C@@H]1O` [R^1=CH3CH2], for which the “addition … to the primer” value is reported as “++” at T7 sequenase version 2; “+” on Klenow; “++” in the assay with AMV RT; “++” on M-MuLV RT; “++” on HIV-1RT.
